Assay: mn = molality of the nth substance listed, in mol/kg
Conditions: Liquid

[I-].[Li+] [lithium iodide] + O
Conditions	mass density [kg/m3]
398.15 K, 5511 kPa, m1 = 0.6621	1002.67
398.15 K, 8728 kPa, m1 = 0.0906	951.87
398.15 K, 15593 kPa, m1 = 0.6621	1007.74
398.15 K, 16181 kPa, m1 = 0.0906	955.54
398.15 K, 22554 kPa, m1 = 0.6621	1011.13
398.15 K, 22710 kPa, m1 = 0.0906	958.45
398.15 K, 29087 kPa, m1 = 0.6621	1013.99
398.2 K, 2942 kPa, m1 = 1.605	1082.97
398.2 K, 10787 kPa, m1 = 1.605	1087.05
398.2 K, 21025 kPa, m1 = 1.605	1092.08
398.2 K, 28753 kPa, m1 = 1.605	1095.49
398.3 K, 3511 kPa, m1 = 0.2832	967.1
398.3 K, 11925 kPa, m1 = 0.2832	971.24
398.3 K, 21398 kPa, m1 = 0.2832	975.83
398.3 K, 30636 kPa, m1 = 0.2832	979.93
448.15 K, 4570 kPa, m1 = 3.089	1157.85
448.15 K, 4903 kPa, m1 = 0.2832	922.17
448.15 K, 14573 kPa, m1 = 3.089	1163.98
448.15 K, 15593 kPa, m1 = 0.2832	928.54
448.15 K, 22869 kPa, m1 = 3.089	1168.32
448.15 K, 24340 kPa, m1 = 0.2832	933.52
448.3 K, 3668 kPa, m1 = 0.0906	902.88
448.3 K, 7924 kPa, m1 = 0.0906	905.5
448.3 K, 15436 kPa, m1 = 0.0906	910.16
448.3 K, 21810 kPa, m1 = 0.0906	913.8
448.33 K, 4805 kPa, m1 = 0.6621	957.8
448.33 K, 15200 kPa, m1 = 0.6621	963.27
448.33 K, 24026 kPa, m1 = 0.6621	968.45
448.33 K, 28675 kPa, m1 = 0.6621	970.94
448.45 K, 3099 kPa, m1 = 1.605	1038.18
448.45 K, 10375 kPa, m1 = 1.605	1042.6
448.45 K, 25497 kPa, m1 = 1.605	1050.41
472.53 K, 8081 kPa, m1 = 0.2832	897.8
472.53 K, 16985 kPa, m1 = 0.2832	904
472.53 K, 23614 kPa, m1 = 0.2832	908.3
474.75 K, 6943 kPa, m1 = 1.605	1014.9
474.75 K, 13317 kPa, m1 = 1.605	1020.2
474.75 K, 24595 kPa, m1 = 1.605	1027
475 K, 6198 kPa, m1 = 0.6621	929.3
475 K, 15926 kPa, m1 = 0.6621	936.2
475 K, 24517 kPa, m1 = 0.6621	941.7
479.05 K, 7590 kPa, m1 = 3.089	1129.2
479.05 K, 16907 kPa, m1 = 3.089	1135.6
479.05 K, 21771 kPa, m1 = 3.089	1138.5
521.05 K, 7924 kPa, m1 = 0.6621	872.4
521.05 K, 11846 kPa, m1 = 0.6621	876.3
521.05 K, 18221 kPa, m1 = 0.6621	882.3
522.63 K, 9473 kPa, m1 = 0.2832	834.6
522.63 K, 21516 kPa, m1 = 0.2832	846.6
522.63 K, 27047 kPa, m1 = 0.2832	851.1
522.91 K, 8493 kPa, m1 = 1.605	961.6
522.91 K, 14867 kPa, m1 = 1.605	967.1
522.91 K, 20050 kPa, m1 = 1.605	971.2
523.15 K, 7178 kPa, m1 = 3.089	1079.91
523.15 K, 12415 kPa, m1 = 3.089	1084.49
523.15 K, 21810 kPa, m1 = 3.089	1091.96
572.75 K, 12415 kPa, m1 = 0.6621	795.1
572.75 K, 19201 kPa, m1 = 0.6621	806
572.75 K, 24419 kPa, m1 = 0.6621	813.4
573.15 K, 11591 kPa, m1 = 1.605	896.3
573.15 K, 16338 kPa, m1 = 1.605	902.6
573.15 K, 20672 kPa, m1 = 1.605	907.3
575.75 K, 15022 kPa, m1 = 0.2832	750.9
575.75 K, 19201 kPa, m1 = 0.2832	758.8
575.75 K, 24516 kPa, m1 = 0.2832	767.7
600.25 K, 12650 kPa, m1 = 3.089	1019.35
600.25 K, 18534 kPa, m1 = 3.089	1025.9
600.25 K, 22143 kPa, m1 = 3.089	1029.61
